The record followed here is patent US20160009693A1, “HERBICIDAL COMPOUNDS” (SYNGENTA LIMITED, priority 2013, published 2016).

Common to all, as to format: in vivo
What all share (conditions): evaluated after 13 days

The subject of experiment [1] is Alopecurus myosuroides (ALOMY). In words: Herbicidal glasshouse test, post-emergence, ALOMY.
Experiment [2] relates to Setaria faberi (SETFA). Kind of experiment: Herbicidal glasshouse test, pre-emergence, SETFA.
The test system of experiment [3] is Ipomoea hederacea (IPOHE). In words: Herbicidal glasshouse test, post-emergence, IPOHE.
Experiment [4] deals with Echinochloa crus-galli (ECHCG). In words: Herbicidal glasshouse test, pre-emergence, ECHCG. The gist of the method: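 Echinochloa crus-galli seeds were sown in standard soil in pots and grown for one day in a glasshouse at 24/16° C. day/night, 14 hours light and 65% humidity. Pre-emergence spraying used an aqueous solution of the active ingredient in acetone/water (50:50) with 0.5% Tween 20. Damage was scored after 13 days on a five point scale.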

Experiment [5] has as its system Amaranthus retoflexus (AMARE). Kind of experiment: Herbicidal glasshouse test, post-emergence, AMARE. The gist of the method: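 Amaranthus retoflexus (AMARE) seeds were sown in pots of standard soil and grown in a glasshouse at 24/16° C. day/night, 14 hours light and 65% humidity for 8 days. The plants were then sprayed post-emergence with an aqueous solution of the active ingredient in acetone/water (50:50) with 0.5% Tween 20. Damage was scored after 13 days.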

In experiment [6] the test system is Amaranthus retoflexus (AMARE). Kind of experiment: Herbicidal glasshouse test, pre-emergence, AMARE. The gist of the method:
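Amaranthus retoflexus seeds were sown in pots of standard soil and kept one day in a glasshouse at 24/16° C. (day/night), 14 hours light and 65% humidity. They were then sprayed pre-emergence with the active ingredient in acetone/water (50:50) containing 0.5% Tween 20. Plants grew under the same conditions, watered twice daily, and percentage damage was scored after 13 days.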

Experiment [7] relates to Echinochloa crus-galli (ECHCG). In words: Herbicidal glasshouse test, post-emergence, ECHCG. The procedure, abridged:
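Echinochloa crus-galli (ECHCG) seeds were sown in standard soil in pots and grown for 8 days in a glasshouse at 24/16° C. day/night, 14 hours light and 65% humidity. The young plants were then sprayed post-emergence with the active ingredient in acetone / water (50:50) containing 0.5% Tween 20. Damage was scored after 13 days.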

Experiment [8] relates to Solanum nigrum (SOLNI). Kind of experiment: Herbicidal glasshouse test, post-emergence, SOLNI.
The subject of experiment [9] is Alopecurus myosuroides (ALOMY). Kind of experiment: Herbicidal glasshouse test, pre-emergence, ALOMY.
The subject of experiment [10] is Setaria faberi (SETFA). In words: Herbicidal glasshouse test, post-emergence, SETFA. The procedure, abridged:
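Setaria faberi seeds were sown in standard soil in pots and grown for 8 days in a glasshouse at 24/16° C. day/night, 14 hours light and 65% humidity. The seedlings were then sprayed post-emergence with the active ingredient in acetone/water (50:50) containing 0.5% Tween 20. Afterwards they were kept under the same conditions, watered twice daily, and scored for percentage damage on a five point scale.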

Experiment [11] has as its system Ipomoea hederacea (IPOHE). Kind of experiment: Herbicidal glasshouse test, pre-emergence, IPOHE.
The test system of experiment [12] is Solanum nigrum (SOLNI). In words: Herbicidal glasshouse test, pre-emergence, SOLNI. The gist of the method:
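Seeds of Solanum nigrum were sown in pots of standard soil and kept one day in a glasshouse at 24/16° C. day/night, 14 hours light and 65% humidity. For the pre-emergence treatment they were then sprayed with an aqueous solution of the active ingredient formulated in acetone/water (50:50) containing 0.5% Tween 20. Plant damage was rated after 13 days.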

In the case of `COCCn1c(=O)c(C(=O)Nc2nnnn2C)nn(C)c1=O` [Compound 1.088], the “POST Application ALOMY, percentage damage (five point scale)” value in experiment [1] (applied at 1000 g/h) is 5 (5=80-100%). In addition, the “PRE Application SETFA, percentage damage (five point scale)” value (“PRE Application SETFA, percentage damage” for short) with Setaria faberi (SETFA) [2] (applied at 1000 g/h) is listed as 5 (5=80-100%). For the same compound, in experiment [3] (applied at 1000 g/h), the “POST Application IPOHE, percentage damage (five point scale)” value is recorded as 5 (5=80-100%). The “PRE Application ECHCG, percentage damage (five point scale)” value (shortened to “PRE Application ECHCG, percentage damage”) in experiment [4] (applied at 1000 g/h) is 5 (5=80-100%). The “POST Application AMARE, percentage damage (five point scale)” value in experiment [5] (applied at 1000 g/h) is given as 5 (5=80-100%). The “PRE Application AMARE, percentage damage (five point scale)” value (“PRE Application AMARE, percentage damage” below) in experiment [6] (applied at 1000 g/h) is given as 5 (5=80-100%). For the same compound, in experiment [7] (applied at 1000 g/h), the “POST Application ECHCG, percentage damage (five point scale)” value is recorded as 5 (5=80-100%). Besides, the “POST Application SOLNI, percentage damage (five point scale)” value in the experiment on Solanum nigrum (SOLNI) [8] (applied at 1000 g/h) is 5 (5=80-100%). For the same compound, the “PRE Application ALOMY, percentage damage (five point scale)” value (from here on “PRE Application ALOMY, percentage damage”) in [9] (applied at 1000 g/h) is recorded as 5 (5=80-100%). Also, the “POST Application SETFA, percentage damage (five point scale)” value with Setaria faberi (SETFA) [10] (applied at 1000 g/h) was 5 (5=80-100%). The “PRE Application IPOHE, percentage damage (five point scale)” value (shortened to “PRE Application IPOHE, percentage damage”) in experiment [11] (applied at 1000 g/h) is 5 (5=80-100%). The “PRE Application SOLNI, percentage damage (five point scale)” value (“PRE Application SOLNI, percentage damage” below) with Solanum nigrum (SOLNI) [12] (applied at 1000 g/h) is 5 (5=80-100%).

Turning to `C#CCn1c(=O)c(C(=O)Nc2nnnn2C)nn(C)c1=O` [Compound 1.089], in [1] (applied at 1000 g/h), the “POST Application ALOMY, percentage damage (five point scale)” value was 5 (5=80-100%). Further, the “PRE Application SETFA, percentage damage” value in the experiment with Setaria faberi (SETFA) [2] (applied at 1000 g/h) was 5 (5=80-100%). Moreover, the “POST Application IPOHE, percentage damage (five point scale)” value in experiment [3] (applied at 1000 g/h) is 5 (5=80-100%). The “PRE Application ECHCG, percentage damage” value in [4] (applied at 1000 g/h) is 5 (5=80-100%). Further, the “POST Application AMARE, percentage damage (five point scale)” value in experiment [5] (applied at 1000 g/h) was 5 (5=80-100%). Further, the “PRE Application AMARE, percentage damage” value in experiment [6] (applied at 1000 g/h) was 5 (5=80-100%). Also, in experiment [7] (applied at 1000 g/h), the “POST Application ECHCG, percentage damage (five point scale)” value is listed as 5 (5=80-100%). Moreover, in the experiment on Solanum nigrum (SOLNI) [8] (applied at 1000 g/h), the “POST Application SOLNI, percentage damage (five point scale)” value is 5 (5=80-100%). Further, in experiment [9] (applied at 1000 g/h), the “PRE Application ALOMY, percentage damage” value is given as 5 (5=80-100%). Further, the “POST Application SETFA, percentage damage (five point scale)” value with Setaria faberi (SETFA) [10] (applied at 1000 g/h) is recorded as 5 (5=80-100%). Also, the “PRE Application IPOHE, percentage damage” value in [11] (applied at 1000 g/h) is given as 5 (5=80-100%). In the experiment with Solanum nigrum (SOLNI) [12] (applied at 1000 g/h), the “PRE Application SOLNI, percentage damage” value is 5 (5=80-100%).

For `Cn1nnnc1NC(=O)c1nn(C)c(=O)n(CCCC(F)(F)F)c1=O` [Compound 1.090], in [1] (applied at 1000 g/h), the “POST Application ALOMY, percentage damage (five point scale)” value is 5 (5=80-100%). The “PRE Application SETFA, percentage damage” value with Setaria faberi (SETFA) [2] (applied at 1000 g/h) is 5 (5=80-100%). Moreover, the “POST Application IPOHE, percentage damage (five point scale)” value in [3] (applied at 1000 g/h) is given as 5 (5=80-100%). Moreover, in experiment [4] (applied at 1000 g/h), the “PRE Application ECHCG, percentage damage” value was 5 (5=80-100%). Also, the “POST Application AMARE, percentage damage (five point scale)” value in [5] (applied at 1000 g/h) is 5 (5=80-100%). Further, the “PRE Application AMARE, percentage damage” value in [6] (applied at 1000 g/h) is recorded as 5 (5=80-100%). For the same compound, the “POST Application ECHCG, percentage damage (five point scale)” value in experiment [7] (applied at 1000 g/h) was 5 (5=80-100%). In addition, the “POST Application SOLNI, percentage damage (five point scale)” value with Solanum nigrum (SOLNI) [8] (applied at 1000 g/h) is given as 5 (5=80-100%). Further, the “PRE Application ALOMY, percentage damage” value in experiment [9] (applied at 1000 g/h) is 5 (5=80-100%). In addition, the “POST Application SETFA, percentage damage (five point scale)” value in the experiment on Setaria faberi (SETFA) [10] (applied at 1000 g/h) is on record as 5 (5=80-100%). The “PRE Application IPOHE, percentage damage” value in experiment [11] (applied at 1000 g/h) was 5 (5=80-100%). Further, the “PRE Application SOLNI, percentage damage” value in the experiment on Solanum nigrum (SOLNI) [12] (applied at 1000 g/h) was 5 (5=80-100%).

On to `C=C(C)Cn1c(=O)c(C(=O)Nc2nnnn2C)nn(C)c1=O` [Compound 1.091], for which, in experiment [1] (applied at 250 g/ha), the “POST Application ALOMY, percentage damage (five point scale)” value is 4 (4=60-79%). For the same compound, the “PRE Application SETFA, percentage damage” value in the experiment with Setaria faberi (SETFA) [2] (applied at 250 g/ha) was 4 (4=60-79%). Also, the “POST Application IPOHE, percentage damage (five point scale)” value in experiment [3] (applied at 250 g/ha) is 5 (5=80-100%). Further, in experiment [4] (applied at 250 g/ha), the “PRE Application ECHCG, percentage damage” value was 5 (5=80-100%). Further, the “POST Application AMARE, percentage damage (five point scale)” value in [5] (applied at 250 g/ha) was 5 (5=80-100%). Moreover, the “PRE Application AMARE, percentage damage” value in experiment [6] (applied at 250 g/ha) is recorded as 5 (5=80-100%). In addition, in experiment [7] (applied at 250 g/ha), the “POST Application ECHCG, percentage damage (five point scale)” value is on record as 5 (5=80-100%). For the same compound, in the experiment on Solanum nigrum (SOLNI) [8] (applied at 250 g/ha), the “POST Application SOLNI, percentage damage (five point scale)” value is on record as 5 (5=80-100%). In addition, in experiment [9] (applied at 250 g/ha), the “PRE Application ALOMY, percentage damage” value was 4 (4=60-79%). In the experiment on Setaria faberi (SETFA) [10] (applied at 250 g/ha), the “POST Application SETFA, percentage damage (five point scale)” value is recorded as 4 (4=60-79%). Besides, the “PRE Application IPOHE, percentage damage” value in experiment [11] (applied at 250 g/ha) is recorded as 4 (4=60-79%). For the same compound, in the experiment with Solanum nigrum (SOLNI) [12] (applied at 250 g/ha), the “PRE Application SOLNI, percentage damage” value is on record as 5 (5=80-100%).
